Results taken from the supplement of paper PMC10307832.

What follows are cell lines tested with COc1cc2nc(N3CCCN(C)CC3)nc(NC3CCN(Cc4ccccc4)CC3)c2cc1OC + Cc1nc(NC(=O)N2CCC[C@H]2C(N)=O)sc1-c1ccnc(C(C)(C)C(F)(F)F)c1 [Alpelisib] (partner 2 µM) (assay: relative viability (nuclei count vs DMSO), 5 days (fraction); higher = more cells survive). Details: first compound 0.2 µM.
Procedure, shortened: (§1)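 One day after seeding in 1536-well plates, lung cancer cell lines were dosed by pin tool. Dosing was either single-drug or a fixed anchor-drug dose plus five library-drug doses (not always all listed) in √10 steps. After 5 days, nuclei were stained in one fix-and-stain step and counted on 4× images, and relative viability is the nuclei count of treated wells over that of vehicle wells, given as the median of duplicate plates.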

| Cell Line | relative viability |
| --- | --- |
| NCI-H322M | 0.741 |
| LCLC-97TM1 | 0.241 |
| NCI-H2009 | 1.24 |
| A-427 | 1.12 |
| NCI-H441 | 0.919 |
| NCI-H661 | 0.556 |
| NCI-H1734 | 0.657 |
| NCI-H460 | 0.481 |
| NCI-H2347 | 0.929 |
| SK-LU-1 | 1.21 |
| NCI-H1395 | 1.1 |
| 201T | 1.01 |
| NCI-H1915 | 1.06 |
| HCC-827 | 0.906 |
| LXF-289 | 1.04 |
| NCI-H23 | 0.623 |
| NCI-H647 | 1.12 |

| Cell Line | relative viability |
| --- | --- |
| CAL-12T | 1.21 |
| NCI-H1651 | 0.921 |
| EPLC-272H | 0.952 |
| NCI-H2228 | 0.587 |
| NCI-H1792 | 0.725 |
| NCI-H1355 | 0.83 |
| NCI-H3122 | 0.73 |
| NCI-H1437 | 0.995 |
| NCI-H1755 | 0.979 |
| NCI-H2023 | 0.661 |
| HCC-15 | 0.886 |
| NCI-H1793 | 0.677 |
| PC-14 | 0.981 |
| EKVX | 0.918 |
| LC-2-ad | 0.883 |
| NCI-H1944 | 0.822 |
| NCI-H1975 | 0.718 |

Same assay, conditions: first compound 0.6325 µM

| Cell Line | relative viability |
| --- | --- |
| NCI-H322M | 0.814 |
| NCI-H2009 | 1.07 |
| A-427 | 0.98 |
| NCI-H661 | 0.64 |
| NCI-H1734 | 0.613 |
| NCI-H460 | 0.483 |
| NCI-H2347 | 1.02 |
| SK-LU-1 | 0.977 |
| NCI-H1395 | 1.04 |
| 201T | 0.998 |
| NCI-H1915 | 0.998 |
| HCC-827 | 0.922 |
| LXF-289 | 0.964 |
| NCI-H23 | 0.693 |
| NCI-H647 | 1.13 |
| CAL-12T | 1.23 |

| Cell Line | relative viability |
| --- | --- |
| NCI-H1651 | 0.915 |
| EPLC-272H | 0.904 |
| NCI-H2228 | 0.685 |
| NCI-H1792 | 0.74 |
| NCI-H1355 | 0.861 |
| NCI-H3122 | 0.803 |
| NCI-H1437 | 0.971 |
| NCI-H1755 | 0.844 |
| NCI-H2023 | 0.634 |
| HCC-15 | 0.842 |
| NCI-H1793 | 0.722 |
| PC-14 | 0.918 |
| EKVX | 0.833 |
| LC-2-ad | 0.89 |
| NCI-H1944 | 0.909 |
| NCI-H1975 | 0.597 |

Same assay, conditions: first compound 2 µM

| Cell Line | relative viability |
| --- | --- |
| NCI-H322M | 0.781 |
| LCLC-97TM1 | 0.243 |
| NCI-H2009 | 1.18 |
| A-427 | 0.997 |
| NCI-H441 | 0.601 |
| NCI-H661 | 0.809 |
| NCI-H1734 | 0.798 |
| NCI-H460 | 0.42 |
| NCI-H2347 | 1.03 |
| SK-LU-1 | 1.04 |
| NCI-H1395 | 1.07 |
| 201T | 1.05 |
| NCI-H1915 | 1.1 |
| HCC-827 | 0.952 |
| LXF-289 | 1.06 |
| NCI-H23 | 0.775 |
| NCI-H647 | 1.18 |

| Cell Line | relative viability |
| --- | --- |
| CAL-12T | 1.16 |
| NCI-H1651 | 1.16 |
| EPLC-272H | 1.05 |
| NCI-H2228 | 0.661 |
| NCI-H1792 | 0.717 |
| NCI-H1355 | 0.856 |
| NCI-H3122 | 0.834 |
| NCI-H1437 | 1.12 |
| NCI-H1755 | 0.916 |
| NCI-H2023 | 0.714 |
| HCC-15 | 0.875 |
| NCI-H1793 | 0.812 |
| PC-14 | 1.05 |
| EKVX | 0.92 |
| LC-2-ad | 0.943 |
| NCI-H1975 | 0.727 |

Same assay, conditions: first compound 6.325 µM

| Cell Line | relative viability |
| --- | --- |
| NCI-H322M | 0.68 |
| LCLC-97TM1 | 0.258 |
| NCI-H2009 | 1.07 |
| A-427 | 1.08 |
| NCI-H441 | 0.655 |
| NCI-H661 | 0.774 |
| NCI-H1734 | 0.736 |
| NCI-H460 | 0.242 |
| NCI-H2347 | 0.831 |
| SK-LU-1 | 0.577 |
| NCI-H1395 | 0.589 |
| 201T | 1.01 |
| NCI-H1915 | 1.1 |
| HCC-827 | 0.891 |
| LXF-289 | 0.986 |
| NCI-H23 | 0.675 |
| NCI-H647 | 0.448 |

| Cell Line | relative viability |
| --- | --- |
| CAL-12T | 1.15 |
| NCI-H1651 | 1.1 |
| EPLC-272H | 0.912 |
| NCI-H2228 | 0.409 |
| NCI-H1792 | 0.737 |
| NCI-H1355 | 0.805 |
| NCI-H3122 | 0.723 |
| NCI-H1437 | 0.828 |
| NCI-H1755 | 0.871 |
| NCI-H2023 | 0.331 |
| HCC-15 | 0.687 |
| NCI-H1793 | 0.785 |
| PC-14 | 0.901 |
| EKVX | 0.784 |
| LC-2-ad | 0.896 |
| NCI-H1944 | 0.912 |
| NCI-H1975 | 0.616 |

These cell lines were tested with Cc1cc([C@@H](C)Nc2ccccc2C(=O)O)c2nc(N3CCOCC3)cc(=O)n2c1 [AZD6482] + CC(=O)Nc1cccc(-n2c(=O)n(C3CC3)c(=O)c3c(Nc4ccc(I)cc4F)n(C)c(=O)c(C)c32)c1 [Trametinib] (partner 0.02 µM) in the same assay as above. Details: first compound 0.08 µM.
Procedure, shortened: as §1

| Cell Line | relative viability |
| --- | --- |
| NCI-H322M | 0.51 |
| LCLC-97TM1 | 0.2 |
| NCI-H2009 | 0.181 |
| A-427 | 0.628 |
| NCI-H441 | 0.422 |
| NCI-H661 | 0.615 |
| NCI-H1734 | 0.613 |
| NCI-H460 | 0.138 |
| NCI-H2347 | 0.276 |
| NCI-H1395 | 0.949 |
| 201T | 0.694 |
| NCI-H1915 | 0.257 |
| HCC-827 | 0.47 |
| LXF-289 | 0.681 |
| NCI-H23 | 0.33 |
| NCI-H647 | 0.32 |
| CAL-12T | 0.308 |
| NCI-H1651 | 0.767 |
| EPLC-272H | 0.251 |
| NCI-H2228 | 0.342 |
| NCI-H1792 | 0.322 |
| NCI-H1355 | 0.345 |
| NCI-H3122 | 0.211 |
| NCI-H1437 | 0.506 |
